Common to all, as to assay: Competitive cysteine profiling of cell lysate with desthiobiotin iodoacetamide probe (96-well sample prep)
Assay type in all cases: binding

Experiment [1] deals with T1, cysteine residue illustrated in Table 1A or Table 2A (Homo sapiens, UniProt P10074).
T1 construct: Cells were resuspended in cold PBS on ice and sonicated with a probe sonicator to achieve lysis; endogenous in cells
The following applies: UniProt P10074; KB03 100 uM. Summed up:
(§1)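 Sonicated cell lysate (5 mg/ml proteome) was preincubated with compound 1 h at 25 °C, then labelled with desthiobiotin iodoacetamide probe 1 h at 25 °C. After reduction, alkylation and trypsin digestion, probe-labelled peptides were streptavidin-enriched and eluted for mass-spectrometric analysis.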

The target in experiment [2] is T2, cysteine residue illustrated in Table 1A or Table 2A (Homo sapiens, UniProt Q9NZJ0).
T2 construct: Cells were resuspended in cold PBS on ice and sonicated with a probe sonicator to achieve lysis; endogenous in cells
T2 sequence (Q9NZJ0 whole entry): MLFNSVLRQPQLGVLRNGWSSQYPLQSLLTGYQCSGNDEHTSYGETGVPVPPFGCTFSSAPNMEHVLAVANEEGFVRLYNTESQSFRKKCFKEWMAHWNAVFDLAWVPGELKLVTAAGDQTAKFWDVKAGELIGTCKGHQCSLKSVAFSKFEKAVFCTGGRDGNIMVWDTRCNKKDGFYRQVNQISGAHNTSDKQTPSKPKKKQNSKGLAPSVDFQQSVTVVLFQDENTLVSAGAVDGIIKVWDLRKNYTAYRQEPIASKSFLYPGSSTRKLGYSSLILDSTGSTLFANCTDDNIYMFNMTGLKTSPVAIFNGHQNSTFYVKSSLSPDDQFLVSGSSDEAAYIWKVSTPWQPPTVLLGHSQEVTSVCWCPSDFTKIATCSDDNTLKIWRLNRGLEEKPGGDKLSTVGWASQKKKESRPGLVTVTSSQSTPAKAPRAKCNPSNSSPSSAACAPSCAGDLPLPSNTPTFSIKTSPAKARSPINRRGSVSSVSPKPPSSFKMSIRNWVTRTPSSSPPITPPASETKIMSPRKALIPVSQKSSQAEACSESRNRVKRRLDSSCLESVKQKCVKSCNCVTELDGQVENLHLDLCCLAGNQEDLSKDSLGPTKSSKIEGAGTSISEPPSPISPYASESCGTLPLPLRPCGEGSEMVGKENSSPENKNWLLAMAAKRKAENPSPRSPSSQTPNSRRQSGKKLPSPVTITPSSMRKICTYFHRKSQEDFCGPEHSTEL
The conditions noted are these: UniProt Q9NZJ0; 500 uM. Summed up: as §1

The target of experiment [3] is T3, cysteine residue illustrated in Table 1A or Table 2A (Homo sapiens, UniProt Q9UBI1).
T3 construct: Cells were resuspended in cold PBS on ice and sonicated with a probe sonicator to achieve lysis; endogenous in cells
T3 sequence (Q9UBI1 whole entry): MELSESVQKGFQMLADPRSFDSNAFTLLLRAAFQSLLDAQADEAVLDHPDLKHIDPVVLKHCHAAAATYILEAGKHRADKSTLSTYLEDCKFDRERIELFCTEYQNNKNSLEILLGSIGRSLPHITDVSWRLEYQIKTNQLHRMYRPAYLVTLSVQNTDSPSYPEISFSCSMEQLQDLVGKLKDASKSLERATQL
The conditions noted are these: UniProt Q9UBI1; 500 uM. The gist of the method:
as §1

For experiment [4], the target named is T4, cysteine residue illustrated in Table 1A or Table 2A (Homo sapiens, UniProt Q15386).
T4 construct: Cells were resuspended in cold PBS on ice and sonicated with a probe sonicator to achieve lysis; endogenous in cells
T4 sequence (Q15386 whole entry): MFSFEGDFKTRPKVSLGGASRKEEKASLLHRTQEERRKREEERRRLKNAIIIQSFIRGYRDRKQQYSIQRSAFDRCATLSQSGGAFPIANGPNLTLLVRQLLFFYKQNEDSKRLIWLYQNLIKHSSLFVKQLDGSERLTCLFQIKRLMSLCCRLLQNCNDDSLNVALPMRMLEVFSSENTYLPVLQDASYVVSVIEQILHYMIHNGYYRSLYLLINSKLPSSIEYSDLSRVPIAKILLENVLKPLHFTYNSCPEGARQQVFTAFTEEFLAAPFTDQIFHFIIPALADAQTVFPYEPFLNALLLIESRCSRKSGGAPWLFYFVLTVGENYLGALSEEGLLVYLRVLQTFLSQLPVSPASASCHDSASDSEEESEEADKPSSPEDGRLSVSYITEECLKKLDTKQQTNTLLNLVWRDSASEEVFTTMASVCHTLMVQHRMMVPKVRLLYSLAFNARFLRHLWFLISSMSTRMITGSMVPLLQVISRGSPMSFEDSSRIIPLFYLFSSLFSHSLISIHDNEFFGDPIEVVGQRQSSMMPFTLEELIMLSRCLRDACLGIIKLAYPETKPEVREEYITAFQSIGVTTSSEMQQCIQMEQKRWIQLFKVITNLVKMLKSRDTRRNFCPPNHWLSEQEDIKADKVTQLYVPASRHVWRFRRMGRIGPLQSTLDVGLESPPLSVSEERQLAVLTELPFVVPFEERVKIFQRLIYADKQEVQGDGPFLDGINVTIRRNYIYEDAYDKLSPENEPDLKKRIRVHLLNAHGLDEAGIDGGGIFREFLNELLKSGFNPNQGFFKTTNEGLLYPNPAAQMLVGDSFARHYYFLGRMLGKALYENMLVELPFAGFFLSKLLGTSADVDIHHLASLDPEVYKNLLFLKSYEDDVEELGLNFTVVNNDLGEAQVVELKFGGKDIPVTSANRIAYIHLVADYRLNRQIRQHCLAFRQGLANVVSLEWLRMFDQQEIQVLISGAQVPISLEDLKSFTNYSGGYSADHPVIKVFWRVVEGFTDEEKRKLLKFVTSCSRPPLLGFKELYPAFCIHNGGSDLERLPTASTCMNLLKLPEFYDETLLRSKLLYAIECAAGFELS
The conditions noted are these: UniProt Q15386; KB03 100 uM. The gist of the method: as §1

For experiment [5], the target named is T5, cysteine residue illustrated in Table 1A or Table 2A (Homo sapiens, UniProt Q5T4S7).
T5 construct: Cells were resuspended in cold PBS on ice and sonicated with a probe sonicator to achieve lysis; endogenous in cells
The following applies: UniProt Q5T4S7; KB03 500 uM. Summed up:
as §1

Experiment [6] concerns the target T6, cysteine residue illustrated in Table 1A or Table 2A (Homo sapiens, UniProt Q58WW2).
T6 construct: Cells were resuspended in cold PBS on ice and sonicated with a probe sonicator to achieve lysis; endogenous in cells
The conditions noted are these: UniProt Q58WW2; 100 uM. Summed up: as §1

Experiment [7] deals with T7, cysteine residue illustrated in Table 1A or Table 2A (Homo sapiens, UniProt O76080).
T7 construct: Cells were resuspended in cold PBS on ice and sonicated with a probe sonicator to achieve lysis; endogenous in cells
T7 sequence (O76080 whole entry): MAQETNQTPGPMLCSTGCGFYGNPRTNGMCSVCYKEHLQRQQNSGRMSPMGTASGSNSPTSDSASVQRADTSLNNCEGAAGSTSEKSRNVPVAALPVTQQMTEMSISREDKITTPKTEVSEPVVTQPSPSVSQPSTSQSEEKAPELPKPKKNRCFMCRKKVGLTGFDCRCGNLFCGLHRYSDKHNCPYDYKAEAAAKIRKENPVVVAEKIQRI
The following applies: UniProt O76080; KB03 100 uM. Summed up:
as §1

Experiment [8] deals with T8, cysteine residue illustrated in Table 1A or Table 2A (Homo sapiens, UniProt Q5VU92).
T8 construct: Cells were resuspended in cold PBS on ice and sonicated with a probe sonicator to achieve lysis; endogenous in cells
T8 sequence (Q5VU92 whole entry): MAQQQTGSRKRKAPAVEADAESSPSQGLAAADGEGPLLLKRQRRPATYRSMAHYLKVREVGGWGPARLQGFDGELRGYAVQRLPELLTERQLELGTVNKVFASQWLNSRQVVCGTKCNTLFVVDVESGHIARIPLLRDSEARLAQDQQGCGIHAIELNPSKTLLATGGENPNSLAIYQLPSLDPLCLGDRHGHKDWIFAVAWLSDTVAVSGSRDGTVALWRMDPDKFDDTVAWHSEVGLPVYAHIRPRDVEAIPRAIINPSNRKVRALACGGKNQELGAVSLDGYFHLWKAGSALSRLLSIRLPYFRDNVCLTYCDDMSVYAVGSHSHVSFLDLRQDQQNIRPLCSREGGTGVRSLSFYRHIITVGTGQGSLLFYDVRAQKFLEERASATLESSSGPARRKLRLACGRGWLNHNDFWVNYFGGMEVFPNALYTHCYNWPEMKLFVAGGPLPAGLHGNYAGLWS
The following applies: UniProt Q5VU92. The gist of the method:
as §1

Experiment [9] addresses T9, cysteine residue illustrated in Table 1A or Table 2A (Homo sapiens, UniProt P49754).
T9 construct: Cells were resuspended in cold PBS on ice and sonicated with a probe sonicator to achieve lysis; endogenous in cells
The conditions noted are these: UniProt P49754; KB05 100 uM. The gist of the method: as §1

The target of experiment [10] is T10, cysteine residue illustrated in Table 1A or Table 2A (Homo sapiens, UniProt Q6ZT12).
T10 construct: Cells were resuspended in cold PBS on ice and sonicated with a probe sonicator to achieve lysis; endogenous in cells
The conditions noted are these: UniProt Q6ZT12; KB05 100 uM. Summed up:
as §1

Experiment [11] deals with T11, cysteine residue illustrated in Table 1A or Table 2A (Homo sapiens, UniProt P41002).
T11 construct: Cells were resuspended in cold PBS on ice and sonicated with a probe sonicator to achieve lysis; endogenous in cells
T11 sequence (P41002 whole entry): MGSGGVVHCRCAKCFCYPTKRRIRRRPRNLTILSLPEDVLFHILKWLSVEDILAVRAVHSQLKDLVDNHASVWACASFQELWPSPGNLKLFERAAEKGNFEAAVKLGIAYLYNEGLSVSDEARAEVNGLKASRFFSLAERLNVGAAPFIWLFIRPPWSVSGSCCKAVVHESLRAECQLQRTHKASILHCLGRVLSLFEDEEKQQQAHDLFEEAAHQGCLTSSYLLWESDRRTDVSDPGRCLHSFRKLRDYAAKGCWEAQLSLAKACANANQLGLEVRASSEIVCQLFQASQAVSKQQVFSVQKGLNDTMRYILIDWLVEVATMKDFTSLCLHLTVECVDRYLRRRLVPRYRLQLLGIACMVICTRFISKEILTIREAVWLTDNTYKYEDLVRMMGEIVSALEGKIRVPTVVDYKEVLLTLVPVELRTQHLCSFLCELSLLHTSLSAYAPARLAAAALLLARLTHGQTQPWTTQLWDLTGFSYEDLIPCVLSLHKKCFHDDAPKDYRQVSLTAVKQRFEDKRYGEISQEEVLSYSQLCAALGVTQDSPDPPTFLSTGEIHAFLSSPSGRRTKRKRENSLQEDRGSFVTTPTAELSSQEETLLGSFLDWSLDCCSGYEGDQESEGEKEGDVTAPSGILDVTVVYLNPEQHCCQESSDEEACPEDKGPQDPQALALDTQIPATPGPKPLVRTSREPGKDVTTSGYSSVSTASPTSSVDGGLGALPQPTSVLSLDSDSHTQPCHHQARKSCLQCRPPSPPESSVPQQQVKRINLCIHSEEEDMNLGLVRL
The following applies: UniProt P41002; 100 uM. Summed up: as §1

Experiment [12] deals with T12, cysteine residue illustrated in Table 1A or Table 2A (Homo sapiens, UniProt P55774).
T12 construct: Cells were resuspended in cold PBS on ice and sonicated with a probe sonicator to achieve lysis; endogenous in cells
T12 sequence (P55774 21-89): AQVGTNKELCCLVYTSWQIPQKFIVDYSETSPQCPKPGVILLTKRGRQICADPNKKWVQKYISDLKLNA
The conditions noted are these: UniProt P55774. Summed up: as §1

Experiment [13] addresses T13, cysteine residue illustrated in Table 1A or Table 2A (Homo sapiens, UniProt Q86Y01).
T13 construct: Cells were resuspended in cold PBS on ice and sonicated with a probe sonicator to achieve lysis; endogenous in cells
The conditions noted are these: UniProt Q86Y01; 100 uM. The gist of the method:
as §1

T13 sequence (Q86Y01 whole entry): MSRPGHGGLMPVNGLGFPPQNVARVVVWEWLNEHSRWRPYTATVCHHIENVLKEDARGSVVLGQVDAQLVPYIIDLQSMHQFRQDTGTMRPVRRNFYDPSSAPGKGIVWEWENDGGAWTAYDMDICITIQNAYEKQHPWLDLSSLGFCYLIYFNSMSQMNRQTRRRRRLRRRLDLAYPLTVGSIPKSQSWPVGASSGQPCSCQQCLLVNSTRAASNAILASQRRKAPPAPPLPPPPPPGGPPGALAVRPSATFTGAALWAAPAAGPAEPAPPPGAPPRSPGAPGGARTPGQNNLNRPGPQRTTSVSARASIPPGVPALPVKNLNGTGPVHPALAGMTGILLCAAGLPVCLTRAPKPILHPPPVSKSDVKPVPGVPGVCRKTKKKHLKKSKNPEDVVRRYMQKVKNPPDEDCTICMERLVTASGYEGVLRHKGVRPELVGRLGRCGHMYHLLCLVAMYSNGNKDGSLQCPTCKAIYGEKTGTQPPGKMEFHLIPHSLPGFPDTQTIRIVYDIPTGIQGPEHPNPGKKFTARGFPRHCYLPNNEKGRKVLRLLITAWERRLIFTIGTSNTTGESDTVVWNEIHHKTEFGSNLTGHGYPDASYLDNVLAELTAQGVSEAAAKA
T1 sequence (P10074 whole entry): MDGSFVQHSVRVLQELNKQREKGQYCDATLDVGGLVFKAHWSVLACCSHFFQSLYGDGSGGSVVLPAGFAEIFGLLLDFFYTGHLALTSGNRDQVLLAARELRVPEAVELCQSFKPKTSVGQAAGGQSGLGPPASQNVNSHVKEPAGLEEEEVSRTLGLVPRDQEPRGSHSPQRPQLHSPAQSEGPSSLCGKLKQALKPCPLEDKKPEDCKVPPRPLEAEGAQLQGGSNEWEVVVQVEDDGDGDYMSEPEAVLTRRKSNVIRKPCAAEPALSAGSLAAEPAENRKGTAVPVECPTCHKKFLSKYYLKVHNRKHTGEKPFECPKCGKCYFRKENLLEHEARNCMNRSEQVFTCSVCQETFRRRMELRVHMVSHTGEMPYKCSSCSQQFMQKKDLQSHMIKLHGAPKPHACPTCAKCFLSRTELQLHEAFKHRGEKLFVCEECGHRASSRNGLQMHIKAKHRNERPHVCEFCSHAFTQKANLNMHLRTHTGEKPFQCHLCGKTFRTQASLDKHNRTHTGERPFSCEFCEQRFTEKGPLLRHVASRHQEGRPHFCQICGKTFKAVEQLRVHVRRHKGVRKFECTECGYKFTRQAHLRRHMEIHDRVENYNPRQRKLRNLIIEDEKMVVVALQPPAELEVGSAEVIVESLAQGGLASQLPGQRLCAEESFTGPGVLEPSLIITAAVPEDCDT

As to `O=C(CCl)Nc1cc(C(F)(F)F)cc(C(F)(F)F)c1` [KBO3], the “KB03_100 uM_percent_inhibition” value in experiment [1] was 24%; in experiment [4], 16%; in experiment [6], 67%; in experiment [7] it was 14%. Further, the “KB03_500 uM_percent_inhibition” value in experiment [2] worked out at 69%; in [3] it was 29%; in experiment [5] it was 69%.
Regarding `COc1ccc2c(c1)CCCN2C(=O)CCl` [KB02], the “KB02_100 uM_percent_inhibition” value in experiment [8] (100 uM) turned out to be 25%. Moreover, in [8] (500 uM), the “KB02_500 uM_percent_inhibition” value stood at 29%.
Consider `C=CC(=O)N(c1ccccc1)c1ccc(Br)cc1` [KB05], for which the “KB05_100 uM_percent_inhibition” value stood at 10% in experiment [9]; 41% in experiment [10]; 49% in experiment [11]; 5% in experiment [12] (100 uM); 17% in experiment [13]. For the same compound, in experiment [12] (500 uM), the “KB05_500 uM_percent_inhibition” value is on record as 51%.

These data come from patent US20200239530A1, “COMPOUNDS AND METHODS OF MODULATING PROTEIN DEGRADATION” (Vividion Therapeutics, Inc., priority 2017, published 2020).
